Test results from US20240109848A1, “PROCESS FOR THE PREPARATION OF IMIDAZOBENZODIAZEPINES” (ODH IP Corp., priority 2022, published 2024).

What was measured:
[1] = LC-MS analysis of the TGA samples for thermal isomerization to isomidazolam; type: physicochemical; details: LC-MS of sample after TGA at 200° C. for 50 minutes
[2] = for weight remaining of starting sample (TGA): heated at 200° C. for 50 minutes
Experimental: To test the stable ion-pair hypothesis, TGA of PTSA, midazolam, and their combined salt pair were heated at 200° C. for 50 minutes and their decomposition rates were compared (FIG. 13).

[3] = pH titration of the carboxylate with mother liquor analysis (solubility versus pH); type: physicochemical; details: pH values below 1, methanol/KOH saponification mixture titrated with acid
Experimental: Saponification of midazolam ethyl ester to the carboxylic acid was performed both in batch and flow, but poor solubility limited the throughput of a continuous manufacturing approach. Therefore, the reaction was run as a batch in a methanol/KOH solution. Much of the R&D on this process step revolved around the reactive crystallization of the carboxylic acid product. […] An initial screen was performed by titrating a batch of the carboxylate and analyzing the mother liquor at decreasing pH values to determine the pH value with the highest yield (FIG. 10).
The titration experiment determined that pH 5.5-6.0 would provide the highest yielding crystallization. At pH values lower than this, the solubility of the product increases again until it is fully soluble at pH values below 1. […] This was an attractive development as the ring open form had been previously reported to provide a purer decarboxylation. The ring quickly closes in neutral solvent, and the diastereomeric methylene resonances appear clearly between 4-6 ppm. […] To test this hypothesis, we performed […] batch reactions and crystallization at pH 1, and 5.5. The solid products were characterized by thermogravimetric analysis and ^1H NMR spectroscopy (FIGS. 11A and 11B).

| Compound | isomidazolam formed in TGA sample [1] | weight remaining of starting sample (TGA) [2] | solubility of the product [3] | weight remaining (TGA) ([2]; heated at 200° C., within 40 minutes of heating) |
| --- | --- | --- | --- | --- |
| 8-chloro-6-(2-fluorophenyl)-1-methyl-4H-imidazo[1,5-a][1,4]benzodiazopine [Midazolam, reference compound] | 12 % LCAP | 65 weight % |  |  |
| Cc1nc(C(=O)O)c2n1-c1ccc(Cl)cc1C(c1ccccc1F)=NC2 [Midazolam carboxylic acid, 8-chloro-6-(2-fluorophenyl)-1-methyl-4H-imidazo[1,5-a][1,4]benzodiazopine-3-carboxylic acid] |  |  | fully soluble |  |
| Cc1ccc(S(=O)(=O)O)cc1 [PTSA, para-toluenesulfonic acid] |  |  |  | ~10 weight % |
| Cc1ccc(S(=O)(=O)O)cc1.Cc1ncc2n1-c1ccc(Cl)cc1C(c1ccccc1F)=NC2 [midazolam:PTSA pair] | 1 % LCAP | 90 weight % |  |  |
